According to patent US7410983B2 (Fournier Laboratories Ireland Limited, priority 2000, dated 2008):

Key:
[1] = system: patients with type 2 diabetes; assay: Venous occlusion plethysmography: forearm blood flow response to intra-brachial acetylcholine; type: in vivo, human; details: 12 weeks; for mean change on treatment (Week 12-Week 0) in acetylcholine AUC percent increase in forearm blood flow ratio: single treatment group, 200 mg once daily each agent, ACh 7.5, 15 and 30 μg/min, aspirin pretreatment
Protocol: Evaluations of vascular function were carried out by bilateral venous occlusion plethysmography at weeks 0 and 12. These consisted of serial measurements of forearm blood flow before and after intra-brachial artery infusion of acetylcholine (ACh 7.5, 15 and 30 μg/min), sodium nitroprusside (SNP 1.5, 3 and 10 μg/min) and N^G-monomethyl-L-arginine (L-NMMA 4 μmol/l). […] Pretreatment with acetylsalicylic acid (aspirin) (650 mg daily taken orally) was given for one week to block prostacyclin and thromboxane generation.
Plethysmography studies were performed during a 5 minute infusion of each agent, diluted in saline and infused at a rate of 1 mL/min into the brachial artery of the non-dominant arm via a thin plastic cannula Each infusion of vasoactive agents was preceded by a period of saline infusion. Bilateral forearm blood flow was measured simultaneously at 15 second intervals for the final two minutes of each 5 minute infusion period employing mercury-in-silastic strain gauges. During measurements hands were excluded from the circulation by inflation of wrist cuffs to 200 mmHg and venous occlusion was obtained by cyclical inflation of upper arm cuffs to 40 mmHg. Results were expressed as the area under the curve (AUC) of the percent increase in forearm blood flow ratio (infused arm versus control arm) to account for any systemic effect of these vasoactive drugs. The AUC provided integration over time of the dose response to the agent used. AUC for percent change in blood flow to ACh was a priori described as the primary efficacy criterion in this trial.
Statistical analyses were performed using 2 by 2 analysis of variance using SPSS package

patient = details: for the patient; cited from earlier work
[2] = system: patients with type 2 diabetes; assay: Venous occlusion plethysmography: forearm blood flow response to acetylcholine with co-infusion of L-NMMA; type: in vivo, human; details: 12 weeks
Protocol: (§1) Male or female patients aged less than 70 years and without severe obesity (Body Mass Index below 35 kg/m^2) were included after a 6 week run-in period if they had Haemoglobin A1c below 9%, total cholesterol below 6.5 mmol/l and either triglyceride above 1.8 mmol/l or HDL cholesterol below 1 mmol/l. The two therapeutic agents alone or in combination were given each as 200 mg once daily. Capsules identical in appearance to each agent but containing placebo were given to maintain the double-blind nature of the study.
(§2) Evaluations of vascular function were carried out by bilateral venous occlusion plethysmography at weeks 0 and 12. […]
(§3) Plethysmography studies were performed during a 5 minute infusion of each agent, diluted in saline and infused at a rate of 1 mL/min into the brachial artery of the non-dominant arm via a thin plastic cannula Each infusion of vasoactive agents was preceded by a period of saline infusion. Bilateral forearm blood flow was measured simultaneously at 15 second intervals for the final two minutes of each 5 minute infusion period employing mercury-in-silastic strain gauges. […] Results were expressed as the area under the curve (AUC) of the percent increase in forearm blood flow ratio (infused arm versus control arm) to account for any systemic effect of these vasoactive drugs. […]

[3] = CoQ10 plasma levels after treatment; type: in vivo, human; details: 12 weeks, 200 mg once daily each
Protocol: as §1

[4] = system: patients with type 2 diabetes; assay: Lipids, diabetes control and blood pressure in the randomized clinical trial; type: in vivo, human; details: 12 weeks, 200 mg once daily
Protocol: as §1

[5] = system: patients with type 2 diabetes; assay: Venous occlusion plethysmography: forearm blood flow response to intra-brachial sodium nitroprusside; type: in vivo, human; details: 12 weeks
Protocol: as §1, §2, §3

[6] = pooled groups of the 2×2 design: all patients on the agent, with or without the other agent

- plasma levels of CoQ10 after treatment, CoQ10 alone versus combination groups [3]: did not differ
Structure (SMILES): COC1=C(OC)C(=O)C(C/C=C(\C)CC/C=C(\C)CC/C=C(\C)CC/C=C(\C)CC/C=C(\C)CC/C=C(\C)CC/C=C(\C)CC/C=C(\C)CC/C=C(\C)CCC=C(C)C)=C(C)C1=O [Q, coenzyme Q10]
- mean change on treatment (Week 12-Week 0) in acetylcholine AUC percent increase in forearm blood flow ratio, factorial margin (F+ or Q+) [1, 6]: 206% [119% to
- mean change on treatment (Week 12-Week 0) in acetylcholine AUC percent increase in forearm blood flow ratio [1]: −7% [−119%
- mean change on treatment (Week 12-Week 0) in acetylcholine AUC percent increase in forearm blood flow ratio ([1]; listed as CoQ10): no change
- dose previously demonstrated to be safe (patient): up to 300 mg daily
- mean change on treatment (Week 12-Week 0) in acetylcholine percent increase in forearm blood flow ratio with co-infusion of L-NMMA, factorial margin (F+ or Q+) [2, 6]: 48% [6% to 90%]
- mean change on treatment (Week 12-Week 0) in acetylcholine percent increase in forearm blood flow ratio with co-infusion of L-NMMA ([2]; single treatment group, 200 mg once daily each agent): −21% [−76% to
- lipid lowering effects [4]: no lipid lowering effects
- mean change on treatment (Week 12-week 0) in sodium nitroprusside AUC percent increase in forearm blood flow ratio, factorial margin (F+ or Q+) [5, 6]: 822% [399% to
- mean change on treatment (Week 12-week 0) in sodium nitroprusside AUC percent increase in forearm blood flow ratio ([5]; single treatment group, 200 mg once daily each agent, SNP 1.5, 3 and 10 μg/min): 50% [−641% to
